Source: patent US8916599B2, “1H-benz imidazole-5-carboxamides as anti-inflammatory agents” (Orexo AB, priority 2008, dated 2014)

biological target: T1, recombinant human mPGES-1 (Homo sapiens, UniProt O14684); test: mPGES-1 inhibition test (microsomes, PGH2 substrate, HTRF detection of PGE2); assay type: biochemical; conditions: inhibition of mPGES-1 at 1 μM (marked in cell)
T1 construct: made in house; host or cells: Rosetta E. coli (microsomal/membrane fraction)
T1 sequence (O14684 1-152): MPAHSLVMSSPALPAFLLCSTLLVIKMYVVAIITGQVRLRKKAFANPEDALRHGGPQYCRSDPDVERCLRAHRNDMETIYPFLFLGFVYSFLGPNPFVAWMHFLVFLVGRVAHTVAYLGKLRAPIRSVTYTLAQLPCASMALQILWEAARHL
In short: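 Microsomes from E. coli expressing recombinant human mPGES-1 in 0.1 M KPi pH 7.4 with 2.5 mM GSH were preincubated with inhibitor 25 min at room temperature. PGH2 was then added, and the reaction was stopped after 1 min with acidified FeCl2. PGE2 was quantified by HTRF (665/620 nm ratio) against a synthetic PGE2 standard curve.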

inhibition at 1 µM	Compound
100%	O=C(Nc1ccc(Cl)c(C(F)(F)F)c1)c1ccc2[nH]c(Nc3c(Cl)cccc3Cl)nc2c1 [Example 282, 2-(2,6-Dichloro-phenylamino)-1H-benzimidazole-5-carboxylic acid (4-chloro-3-trifluoromethyl-phenyl)-amide]
100%	O=C(Nc1cccc(C(F)(F)F)c1)c1ccc2[nH]c(Nc3c(Cl)cccc3Cl)nc2c1 [Example 283, 2-(2,6-Dichloro-phenylamino)-1H-benzimidazole-5-carboxylic acid (3-trifluoromethyl-phenyl)-amide]

same assay, conditions: inhibition of mPGES-1 at 10 μM

Compound	inhibition at 10 µM
CNCCCn1c(Nc2c(Cl)cccc2Cl)nc2cc(C(=O)Nc3cc(Cl)ccn3)ccc21 [Example 266, 2-(2,6-Dichloro-phenylamino)-1-(3-methylamino-propyl)-1H-benzimidazole-5-carboxylic acid (4-chloro-pyridin-2-yl)-amide]	100%
O=C(Nc1cc(Cl)ccn1)c1ccc2c(c1)nc(Nc1c(Cl)cccc1Cl)n2CCN1CCCC1=O [Example 267, 2-(2,6-Dichloro-phenylamino)-1-[2-(2-oxo-pyrrolidin-1-yl)-ethyl]-1H-benzimidazole-5-carboxylic acid (4-chloro-pyridin-2-yl)-amide]	94%
CC(=O)NCCCn1c(Nc2c(Cl)cccc2Cl)nc2cc(C(=O)Nc3cc(Cl)ccn3)ccc21 [Example 268, 2-(2,6-Dichloro-phenylamino)-1-(3-acetylamino-propyl)-1H-benzimidazole-5-carboxylic acid (4-chloro-pyridin-2-yl)-amide]	94%
CS(=O)(=O)CCn1c(Nc2c(Cl)cccc2Cl)nc2cc(C(=O)Nc3cc(Cl)ccn3)ccc21 [Example 269, 2-(2,6-Dichloro-phenylamino)-1-(2-methanesulfonyl-ethyl)-1H-benzimidazole-5-carboxylic acid (4-chloro-pyridin-2-yl)-amide]	85%
N[C@H]1C[C@H](n2c(Nc3c(Cl)cccc3Cl)nc3cc(C(=O)Nc4cc(Cl)ccn4)ccc32)C1 [Example 270, 2-(2,6-Dichloro-phenylamino)-1-(trans-3-amino-cyclobutyl)-1H-benzimidazole-5-carboxylic acid (4-chloro-pyridin-2-yl)-amide]	96%
COCCn1c(Nc2c(Cl)cccc2Cl)nc2cc(C(=O)Nc3cc(Cl)ccn3)ccc21 [Example 272, 2-(2,6-Dichloro-phenylamino)-1-(2-methoxy-ethyl)-1H-benzimidazole-5-carboxylic acid (4-chloro-pyridin-2-yl)-amide]	90%
CN(C)CCn1c(Nc2c(Cl)cccc2Cl)nc2cc(C(=O)Nc3cc(Cl)ccn3)ccc21 [Example 273, 2-(2,6-Dichloro-phenylamino)-1-(2-dimethylamino-ethyl)-1H-benzimidazole-5-carboxylic acid (4-chloro-pyridin-2-yl)-amide]	100%
COCCCn1c(Nc2c(Cl)cccc2Cl)nc2cc(C(=O)Nc3cc(Cl)ccn3)ccc21 [Example 274, 2-(2,6-Dichloro-phenylamino)-1-(3-methoxy-propyl)-1H-benzimidazole-5-carboxylic acid (4-chloro-pyridin-2-yl)-amide]	100%
O=C(Nc1cc(Cl)ccn1)c1ccc2c(c1)nc(Nc1c(Cl)cccc1Cl)n2CC(=O)N1CCOCC1 [Example 275, 2-(2,6-Dichloro-phenylamino)-1-(2-morpholin-4-yl-2-oxo-ethyl)-1H-benzimidazole-5-carboxylic acid (4-chloro-pyridin-2-yl)-amide]	96%
CN(C)CCCn1c(Nc2c(Cl)cccc2Cl)nc2cc(C(=O)Nc3cc(Cl)ccn3)ccc21 [Example 276, 2-(2,6-Dichloro-phenylamino)-1-(3-dimethylamino-propyl)-1H-benzimidazole-5-carboxylic acid (4-chloro-pyridin-2-yl)-amide]	100%
CC(=O)NCCn1c(Nc2c(Cl)cccc2Cl)nc2cc(C(=O)Nc3cc(Cl)ccn3)ccc21 [Example 278, 2-(2,6-Dichloro-phenylamino)-1-(2-acetylamino-ethyl)-1H-benzimidazole-5-carboxylic acid (4-chloro-pyridin-2-yl)-amide]	92%
O=C(Nc1ccc(Br)cc1)c1ccc2[nH]c(Nc3ccccc3Br)nc2c1 [Example 279, 2-(2-Bromo-phenylamino)-1H-benzimidazole-5-carboxylic acid (4-bromo-phenyl)-amide]	97%

Further lines, results first:

inhibition at 10 µM	Compound
98%	O=C(Nc1cc(Cl)ccn1)c1ccc2c(c1)nc(Nc1c(Cl)cccc1Cl)n2CCO [Example 271, 2-(2,6-Dichloro-phenylamino)-1-(2-hydroxy-ethyl)-1H-benzimidazole-5-carboxylic acid (4-chloro-pyridin-2-yl)-amide]
99%	CCn1c(Nc2c(Cl)cccc2Cl)nc2cc(C(=O)Nc3cc(Cl)ccn3)ccc21 [Example 277, 2-(2,6-Dichloro-phenylamino)-1-ethyl-1H-benzimidazole-5-carboxylic acid (4-chloro-pyridin-2-yl)-amide]
100%	O=C(Nc1cc(Cl)ccc1Cl)c1ccc2[nH]c(Nc3c(Cl)cccc3Cl)nc2c1 [Example 281, 2-(2,6-Dichloro-phenylamino)-1H-benzimidazole-5-carboxylic acid (2,5-dichloro-phenyl)-amide]
100%	O=C(Nc1ccccc1Cl)c1ccc2[nH]c(Nc3c(Cl)cccc3Cl)nc2c1 [Example 284, 2-(2,6-Dichloro-phenylamino)-1H-benzimidazole-5-carboxylic acid (2-chloro-phenyl)-amide]
100%	O=C(Nc1cccc(F)c1)c1ccc2[nH]c(Nc3c(Cl)cccc3Cl)nc2c1 [Example 285, 2-(2,6-Dichloro-phenylamino)-1H-benzimidazole-5-carboxylic acid (3-fluoro-phenyl)-amide]
100%	Cc1ccc(NC(=O)c2ccc3[nH]c(Nc4c(Cl)cccc4Cl)nc3c2)cc1Cl [Example 286, 2-(2,6-Dichloro-phenylamino)-1H-benzimidazole-5-carboxylic acid (3-chloro-4-methyl-phenyl)-amide]
92%	O=C(Nc1cc(Cl)c(Cl)c(Cl)c1)c1ccc2[nH]c(Nc3c(Cl)cccc3Cl)nc2c1 [Example 287, 2-(2,6-Dichloro-phenylamino)-1H-benzimidazole-5-carboxylic acid (3,4,5-trichloro-phenyl)-amide]
100%	O=C(NCC1CCCCC1)c1ccc2[nH]c(Nc3c(Cl)cccc3Cl)nc2c1 [Example 288, 2-(2,6-Dichloro-phenylamino)-1H-benzimidazole-5-carboxylic acid cyclohexylmethyl-amide]
100%	O=C(Nc1cc(C(F)(F)F)ccc1Cl)c1ccc2[nH]c(Nc3c(Cl)cccc3Cl)nc2c1 [Example 292, 2-(2,6-Dichloro-phenylamino)-1H-benzimidazole-5-carboxylic acid (2-chloro-5-trifluoromethyl-phenyl)-amide]
100%	O=C(Nc1cccc(C(F)(F)F)n1)c1ccc2[nH]c(Nc3c(Cl)cccc3Cl)nc2c1 [Example 305, 2-(2,6-Dichloro-phenylamino)-1H-benzimidazole-5-carboxylic acid (6-trifluoromethyl-pyridin-2-yl)-amide]
